Test results from patent US20250282742A1, “BENZOFURAN DERIVATIVES FOR TARGETING AUTOPHAGY” (Automera PTE. LTD, priority 2024, published 2025).

Legend:
[1] = tested on: p62 oligomers in HeLa cells; test: p62 oligomerization assay (Western blot, 24 h treatment); type: cell-based; conditions: fold change of p62 oligomer levels relative to DMSO control
Method: HeLa cells were seeded in 6-well plates (700,000 cells) and allowed to adhere overnight. Media was replaced one hour before administering either vehicle (DMSO) or test compounds. After 24 hours of treatment, the media was discarded, and cells were rinsed once with ice-cold 1×PBS before detached from plates with ice-cold RIPA Lysis and Extraction Buffer (Thermo Fisher Scientific) which was supplemented with protease and phosphatase inhibitors. The resulting cell suspensions were transferred to pre-chilled microcentrifuge tubes, incubated on ice for 20 min with intermittent mixing and then centrifuged at 12,000 rpm for 20 min at 4° C. The supernatants were then aspirated slowly and transferred into new tubes kept on ice. The protein concentration in the samples was determined using BCA kit (Thermo Fisher Scientific) as per manufacturer's instructions.
For the p62 oligomerization and LC3 lipidation assays, cell lysates were prepared using RIPA buffer supplemented with 2% SDS and benzonase (Sigma). The lysates were then combined with 4× Laemmli protein sample buffer (Bio-Rad), heated at 70° C. for 10 min and subjected to a brief centrifugation of 10-15 seconds.
For p62 oligomerization and LC3 lipidation assays, lysates containing 30 μg of protein and for BRD4 and FKBP12(F36V) degradation assays, lysates containing 20 μg of protein, were loaded slowly into the wells of 4-20% gradient Tris-glycine gels (Bio-Rad). The gels were run at 100V until completion and transferred onto PVDF membranes. Membranes were blocked using 5% milk in TBS-Tween (0.1%) buffer at room temperature for 1 hour. The membranes were incubated with primary antibody in 5% milk-TBST with shaking, overnight at 4° C. The primary antibodies used were: p62 (Novus Biologicals 2C11, H00008878-MO1), LC3A/B (Cell Signalling Technology D3U4C, 12741S), FKBP12 (Abcam ab24373), BRD4 (Cell Signalling Technology E2A7X, 13440S), GAPDH (Cell Signalling Technology D4C6R, 97166S), and β-Actin (Proteintech 66009-1-Ig). Following primary antibody incubation, membranes were washed thrice with TBST 10 min before and after incubation with secondary-HRP conjugated antibody in 5% milk-TBST for 1 hour at room temperature. The secondary antibodies used were: Anti-Mouse IgG HRP Conjugate (Promega W4021B) and Anti-Rabbit IgG HRP Conjugate (Promega W4011B). For the p62 oligomerization assay, the total protein levels were assessed using Ponceau staining (Thermo Fisher Scientific) of PVDF membrane as per recommendation by manufacturer's guidelines.
Imaging was acquired using SuperSignal™ West Pico PLUS Chemiluminescent Substrate (Thermo Fisher Scientific) with iBright Invitrogen FL100 imaging system. Band signal intensity, reflective of protein concentrations, were quantified using Invitrogen™ iBright™ Analysis and Image J software.
HeLa cells were treated with compounds for 24 hours to evaluate the effect of these compounds on p62 oligomerisation activity. The resulting changes in levels of p62 oligomers were assessed by Western blotting, as described in experimental procedures. The fold change of p62 oligomer levels induced by compound treatment relative to vehicle control (DMSO) was determined and summarized in Table 8. Specifically, FIGS. 2A-C show Western blot images and their corresponding quantification showing the levels of high molecular weight (100-200 kDa) p62 oligomers by 24 hours compound treatments at listed concentrations, relative to vehicle control (DMSO) in HeLa cells. Protein loading consistencies was assessed by Ponceau staining (not shown).

Recombinant p62 protein = target: T1, Recombinant p62 protein (Homo sapiens, UniProt Q13501); test: Surface plasmon resonance (SPR) compound binding to immobilised p62; conditions: recombinant p62, 15° C
T1 construct: Recombinant p62 protein was buffer exchanged into Biacore SPR running buffer
Method: Example 28: Surface Plasmon Resonance (SPR) Analysis
Recombinant p62 protein was buffer exchanged into Biacore SPR running buffer (Cytiva 100671) using the Slide-A-Lyzer Mini Dialysis system 7K MWCO (Thermo Fisher Scientific, Cat no. 69560). The final protein concentration was determined using the Nanodrop One spectrophotometer (Thermo Fisher Scientific, cat no. ND-ONE-W), with calibration for the dialysis buffer.
The prepared protein was diluted in sodium acetate buffer (NaAc, pH 5.5, Cytiva) to concentrations ranging from approximately 0.25-40 μg/mL. Post-immobilization, the protein required approximately 16 hours of equilibration in running buffer supplemented with 1% DMSO at 15° C. to ensure adequate surface equilibration and protein reorganization.
All SPR experiments were conducted at a constant temperature of 15° C. The SPR chip surface was activated using EDC/NHS for a contact time of 6-10 min at a flow rate of 10 μL/min. This was followed by protein immobilization for 2100 seconds and ethanolamine capping for 420 seconds, both at the same flow rate. Immediately after immobilization, the NH2—REEE peptide was analyzed in Single Cycle Kinetics mode (SCK) to verify surface activity, ensuring it binds the sample with the published affinity (−20 μM by SPR).
For general compound binding studies, experiments were performed at 15° C. using a running buffer composed of 10 mM HEPES, 150 mM NaCl, 1 mM DTT, 0.05% Tween 20, and 1% DMSO at pH 7.4. The test compound was initially prepared at a 20 mM concentration in DMSO and subsequently titrated in 2-fold dilutions. For each assay, 2 μL of the compound was mixed with 198 μL of the running buffer, and the mixture was thoroughly pipetted approximately 15 times for homogenization.
A series of blank injections (0 μM concentration) were included for double referencing, with at least 8 or 16 per plate depending on the format. Typical injection parameters were 120 seconds for association and 180 seconds for dissociation at a flow rate of […]. A four-point solvent correction was prepared with DMSO concentrations ranging from 2% to 0.5% in the buffer. Post each compound injection, the system's needles were washed with 50% DMSO.
Analysis of the SPR data was conducted using the Cytiva Evaluation software. The binding levels at the late time-point of each interaction were corrected for reference, then normalized to percentage bound values to account for variations in immobilization levels, protein molecular weight, and compound molecular weight.
Compound binding studies were carried out according to experimental procedures above and SPR % occupancy was determined and summarized in Table 7.

T1 sequence (Q13501 whole entry, species assumed): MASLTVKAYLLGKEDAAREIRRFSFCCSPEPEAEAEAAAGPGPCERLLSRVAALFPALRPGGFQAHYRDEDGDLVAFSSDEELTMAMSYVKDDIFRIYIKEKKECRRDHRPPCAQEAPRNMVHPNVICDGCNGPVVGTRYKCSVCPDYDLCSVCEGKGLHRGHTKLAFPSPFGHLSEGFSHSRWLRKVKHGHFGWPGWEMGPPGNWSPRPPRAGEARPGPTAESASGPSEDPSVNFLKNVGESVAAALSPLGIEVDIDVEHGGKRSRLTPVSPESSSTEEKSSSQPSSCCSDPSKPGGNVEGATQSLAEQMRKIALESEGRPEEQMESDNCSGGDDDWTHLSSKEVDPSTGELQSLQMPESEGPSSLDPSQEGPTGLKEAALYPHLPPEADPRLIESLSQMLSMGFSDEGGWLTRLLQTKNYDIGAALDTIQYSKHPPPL

Structure (SMILES) | receptor occupancy at 100 µM (Recombinant p62 protein) [%] | p62 oligomerization [1]
OCCNCc1ccc2cc(Cc3ccc(Cl)cc3)oc2c1 [Compound 13, 2-(((2-(4-chlorobenzyl)benzofuran-6-yl)methyl)amino)ethan-1-ol] | > 70 | ++ (> 2-fold change relative to DMSO control)
OCCNCc1ccc2cc(Cc3ccc(F)cc3)oc2c1 [compound 12] | > 70 | ++ (> 2-fold change relative to DMSO control)
OCCNCc1ccc2cc(-c3ccccc3)oc2c1 [Compound 2, 2-(((2-phenylbenzofuran-6-yl)methyl)amino)ethan-1-ol] | 30 to 70 | ++ (> 2-fold change relative to DMSO control)
OCCNCc1ccc2cc(CCc3ccc(F)cc3)oc2c1 [Compound 49, 2-(((2-(4-fluorophenethyl)benzofuran-6-yl)methyl)amino)ethan-1-ol] | 30 to 70 | ++ (> 2-fold change relative to DMSO control)

Continued, in another order:

receptor occupancy at 100 µM (Recombinant p62 protein) [%] | Structure (SMILES) | p62 oligomerization [1]
30 to 70 | Cc1c(Cc2ccccc2)oc2cc(CNCCO)ccc12 [Compound 42, 2-(((2-benzyl-3-methylbenzofuran-6-yl)methyl)amino)ethan-1-ol] | + (< 2-fold change relative to DMSO control)
< 30 | OCCNCc1ccc2cc(Cc3ccccc3)oc2c1 [compound 1] | + (< 2-fold change relative to DMSO control)
